# Experimental data taken from US20220315621A1, “COMPOSITIONS AND METHODS FOR TREATING CNS DISORDERS” (priority 2017, published 2022).
# Like-named read-outs stand apart in the source and are kept apart here.
# Target: GABAA receptor (rat brain cortical membranes, [35S]-TBPS binding)
# [1] = Table I-6, rat brain cortical membranes, 3 nM [35S]-TBPS, in the presence of 5 mM GABA
# [2] = Table I-4, rat brain cortical membranes, 3 nM [35S]-TBPS, in the presence of 5 mM GABA
SMILES,IC50 [2] [nM],further results
"COC[C@H]1CCCC[C@H]2[C@@H]3CC[C@@H]4C[C@](C)(O)CC[C@@H]4[C@H]3CC[C@]12C [I-BA6, (2R,4aS,4bR,6aS,7S,11aS,11bR,13aR)-7-(methoxymethyl)-2,6a-dimethyloctadecahydro-1H-cyclohepta[a]phenanthren-2-ol]",,IC50 [1]: 100 to 1000 nM
"C[C@@H]1CC[C@H]2[C@@H]3CC[C@@H]4C[C@](C)(O)CC[C@@H]4[C@H]3CC[C@]2(C)C1=O [Compound I-50, (2R,4aS,4bR,6aR,8R,10aS,10bR,12aS)-8-hydroxy-2,8,12a-trimethylhexadecahydrochrysen-1(2H)-one]",1000 to 10000,
"COC[C@@]1(O)CC[C@H]2[C@H](CC[C@@H]3[C@@H]2CC[C@]2(C)[C@@H](O)CCC[C@@H]32)C1 [I-L8, (1S,4aS,4bR,6aR,8R,10aS,10bR,12aS)-8-(methoxymethyl)-12a-methyloctadecahydrochrysene-1,8-diol]",1000 to 10000,
"CN(C[C@H]1CCC[C@H]2[C@@H]3CC[C@@H]4C[C@](C)(O)CC[C@@H]4[C@H]3CC[C@]12C)S(=O)(=O)c1ccccc1 [I-A8, N-(((1S,4aS,4bR,6aR,8R,10aS,10bR,12aS)-8-hydroxy-8,12a-dimethyloctadecahydrochrysen-l-yl)methyl)-N-methylbenzenesulfonamide]",10 to 100,
C[C@@]1(O)CC[C@H]2[C@H](CC[C@@H]3[C@@H]2CC[C@]2(C)C[C@H](C(=O)Nc4ccccc4)CCC[C@@H]32)C1 [I-BC11a],,IC50 [1]: 1000 to 10000 nM
"COC[C@@]1(O)CC[C@H]2[C@@H](CC[C@@H]3[C@@H]2CC[C@]2(C)[C@@H](Nc4ccc(F)cc4)CCC[C@@H]32)C1 [Compound I-23, (2R,4aS,4bR,6aS,7S,10aS,10bR,12aS)-7-((4-fluorophenyl)amino)-2-(methoxymethyl)-6a-methyloctadecahydrochrysen-2-ol]",10 to 100,
"COC[C@@]1(O)CC[C@H]2[C@H](CC[C@@H]3[C@@H]2CC[C@]2(C)[C@@H](C(C)=O)C[C@@H]32)C1 [I-AC11, 1-((1S,2aS,2bR,4aR,6R,8aS,8bR,10aS)-6-hydroxy-6-(methoxymethyl)-10a-methylhexadecahydrocyclobuta[a]phenanthren-1-yl)ethan-1-one]",,"IC50 (Table I-5, rat brain cortical membranes, 3 nM [35S]-TBPS, in the presence of 5 mM GABA): 100 to 1000 nM"
"CCOC[C@@]1(O)CC[C@H]2[C@@H](CC[C@@H]3[C@@H]2CC[C@]2(C)[C@@H](C(=O)Nc4ccccc4)CCC[C@@H]32)C1 [I-B11, (1S,4aS,4bR,6aS,8R,10aS,10bR,12aS)-8-(ethoxymethyl)-8-hydroxy-12a-methyl-N-phenyloctadecahydrochrysene-1-carboxamide]",,IC50: 10 to 100 nM
"C[C@@]1(O)CC[C@H]2[C@H](CC[C@@H]3[C@@H]2CC[C@]2(C)C[C@H](C(=O)Cn4cc(C#N)cn4)CC[C@@H]32)C1 [I-R17a, 1-(2-((2R,4aS,4bR,6aR,8R,10aS,10bR,12aR)-8-hydroxy-8,12a-dimethyloctadecahydrochrysen-2-yl)-2-oxoethyl)-1H-pyrazole-4-carbonitrile]",1000 to 10000,
"CNC[C@H]1CCC[C@H]2[C@@H]3CC[C@@H]4C[C@](C)(O)CC[C@@H]4[C@H]3CC[C@]12C [I-C5, (2R,4aS,4bR,6aS,7S,10aS,10bR,12aR)-2,6a-dimethyl-7-((methylamino)methyl)octadecahydrochrysen-2-ol]",1000 to 10000,
"COC[C@@]1(O)CC[C@H]2[C@@H](CC[C@@H]3[C@@H]2CC[C@]2(C)[C@@H](C(=O)Nc4ccccc4)CCC[C@@H]32)C1 [Compound I-27, (1S,4aS,4bR,6aS,8R,10aS,10bR,12aS)-8-hydroxy-8-(methoxymethyl)-12a-methyl-N-phenyloctadecahydrochrysene-1-carboxamide]",10 to 100,
